Experimental data reported in patent US6486143B2, “6-amino- or 6-hydrazino-sulphonyl-3-quinolynyl-phosphonic acid compounds” (Les Laboratoires Servier, priority 2000, dated 2002).

`O=c1[nH]c2cc(C(F)(F)F)c(S(=O)(=O)N3CCCCC3)cc2cc1P(=O)(O)O` [Example 32, 2-Oxo-6-(1-piperidylsulphonyl)-7-(trifluoromethyl)-1,2-dihydro-3-quinolylphosphonic Acid] gave a melting point greater than 260 °C.
